From ChEMBL document CHEMBL5113453, “Design, synthesis, and biological evaluation of a new series of pyrazole derivatives: Discovery of potent and selective JNK3 kinase inhibitors” (Bioorg Med Chem, 2022)

Tests used:
SNB-19 = test: Antiproliferative activity against human SNB-19 cells measured after 48 hrs by SRB assay; format: functional, cell-based
RXF 393 = test: Antiproliferative activity against human RXF 393 cells measured after 48 hrs by SRB assay; format: functional, cell-based
OVCAR-5 = test: Antiproliferative activity against human OVCAR-5 cells measured after 48 hrs by SRB assay; format: functional, cell-based
TK-10 = test: Antiproliferative activity against human TK-10 cells measured after 48 hrs by SRB assay; format: functional, cell-based
ACHN = test: Antiproliferative activity against human ACHN cells measured after 48 hrs by SRB assay; format: functional, cell-based
WI-38 = test: Antiproliferative activity against human WI-38 cells measured by MTT assay; format: functional, cell-based
MOLT-4 = test: Antiproliferative activity against human MOLT-4 cells measured after 48 hrs by SRB assay; format: functional, cell-based
HL-60(TB) = test: Antiproliferative activity against human HL-60(TB) cells measured after 48 hrs by SRB assay; format: functional, cell-based
HT-29 = test: Antiproliferative activity against human HT-29 cells measured after 48 hrs by SRB assay; format: functional, cell-based
SR = test: Antiproliferative activity against human SR cells measured after 48 hrs by SRB assay; format: functional, cell-based
MDA-MB-435 = test: Antiproliferative activity against human MDA-MB-435 cells measured after 48 hrs by SRB assay; format: functional, cell-based
SW-620 = test: Antiproliferative activity against human SW-620 cells measured after 48 hrs by SRB assay; format: functional, cell-based
M14 = test: Antiproliferative activity against human M14 cells measured after 48 hrs by SRB assay; format: functional, cell-based
MDA-MB-468 = test: Antiproliferative activity against human MDA-MB-468 cells measured after 48 hrs by SRB assay; format: functional, cell-based
UO-31 = test: Antiproliferative activity against human UO-31 cells measured after 48 hrs by SRB assay; format: functional, cell-based
SK-OV-3 = test: Antiproliferative activity against human SK-OV-3 cells measured after 48 hrs by SRB assay; format: functional, cell-based
SN12C = test: Antiproliferative activity against human SN12C cells measured after 48 hrs by SRB assay; format: functional, cell-based
SK-MEL-2 = test: Antiproliferative activity against human SK-MEL-2 cells measured after 48 hrs by SRB assay; format: functional, cell-based
COLO 205 = test: Antiproliferative activity against human COLO 205 cells measured after 48 hrs by SRB assay; format: functional, cell-based
CCRF-CEM = test: Antiproliferative activity against human CCRF-CEM cells measured after 48 hrs by SRB assay; format: functional, cell-based
[1] = target: Mitogen-activated protein kinase 10 (Homo sapiens, UniProt P53779); test: Inhibition of JNK3 (unknown origin)
NCI-H23 = test: Antiproliferative activity against human NCI-H23 cells measured after 48 hrs by SRB assay; format: functional, cell-based
RPMI-8226 = test: Antiproliferative activity against human RPMI-8226 cells measured after 48 hrs by SRB assay; format: functional, cell-based
PC-3 = test: Antiproliferative activity against human PC-3 cells measured after 48 hrs by SRB assay; format: functional, cell-based
OVCAR-4 = test: Antiproliferative activity against human OVCAR-4 cells measured after 48 hrs by SRB assay; format: functional, cell-based
MCF7 = test: Antiproliferative activity against human MCF7 cells measured after 48 hrs by SRB assay; format: functional, cell-based
NCI-H522 = test: Antiproliferative activity against human NCI-H522 cells measured after 48 hrs by SRB assay; format: functional, cell-based
CAKI-1 = test: Antiproliferative activity against human CAKI-1 cells measured after 48 hrs by SRB assay; format: functional, cell-based
HCT-116 = test: Antiproliferative activity against human HCT-116 cells measured after 48 hrs by SRB assay; format: functional, cell-based
OVCAR-3 = test: Antiproliferative activity against human OVCAR-3 cells measured after 48 hrs by SRB assay; format: functional, cell-based
SK-MEL-5 = test: Antiproliferative activity against human SK-MEL-5 cells measured after 48 hrs by SRB assay; format: functional, cell-based
Hs-578T = test: Antiproliferative activity against human Hs-578T cells measured after 48 hrs by SRB assay; format: functional, cell-based
HCC 2998 = test: Antiproliferative activity against human HCC 2998 cells measured after 48 hrs by SRB assay; format: functional, cell-based
MDA-MB-231 = test: Antiproliferative activity against human MDA-MB-231 cells measured after 48 hrs by SRB assay; format: functional, cell-based
Malme-3M = test: Antiproliferative activity against human Malme-3M cells measured after 48 hrs by SRB assay; format: functional, cell-based
DU-145 = test: Antiproliferative activity against human DU-145 cells measured after 48 hrs by SRB assay; format: functional, cell-based
OVCAR-8 = test: Antiproliferative activity against human OVCAR-8 cells measured after 48 hrs by SRB assay; format: functional, cell-based
A549 = test: Antiproliferative activity against human A549 cells measured after 48 hrs by SRB assay; format: functional, cell-based
HCT-15 = test: Antiproliferative activity against human HCT-15 cells measured after 48 hrs by SRB assay; format: functional, cell-based

Chain of Mitogen-activated protein kinase 10 (P53779 whole entry): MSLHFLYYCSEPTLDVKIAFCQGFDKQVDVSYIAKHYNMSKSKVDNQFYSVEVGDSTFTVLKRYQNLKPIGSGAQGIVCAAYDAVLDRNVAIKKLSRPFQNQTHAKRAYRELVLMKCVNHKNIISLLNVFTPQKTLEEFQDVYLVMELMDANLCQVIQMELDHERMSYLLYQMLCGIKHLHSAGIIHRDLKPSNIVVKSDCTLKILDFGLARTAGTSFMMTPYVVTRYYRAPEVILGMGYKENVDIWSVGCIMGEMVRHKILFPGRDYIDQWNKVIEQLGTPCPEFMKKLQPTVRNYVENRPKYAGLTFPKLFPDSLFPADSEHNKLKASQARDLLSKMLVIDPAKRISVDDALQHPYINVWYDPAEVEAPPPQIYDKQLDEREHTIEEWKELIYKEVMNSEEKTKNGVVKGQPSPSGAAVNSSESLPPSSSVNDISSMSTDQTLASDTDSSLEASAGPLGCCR

## COc1cccc(-c2nn(-c3ccccc3)cc2-c2ccnc(NCCCNC(=O)Nc3ccc(F)cc3)c2)c1
SNB-19; SNB-19, 48 h
  IC50: 12.1 µM
SNB-19; SNB-19, time 48 hrs
  TGI: > 37 µM
RXF 393; RXF 393, 48 h
  IC50: 6.02 µM
RXF 393; RXF 393, time 48 hrs
  TGI: 28.6 µM
OVCAR-5; OVCAR-5, 48 h
  IC50: 11.2 µM
OVCAR-5; OVCAR-5, time 48 hrs
  TGI: > 37 µM
TK-10; TK-10, 48 h
  IC50: 21.2 µM
TK-10; TK-10, time 48 hrs
  TGI: > 37 µM
ACHN; 48 h
  IC50: 10.6 µM
ACHN; time 48 hrs
  TGI: > 37 µM
WI-38
  IC50: > 20 µM
MOLT-4; MOLT-4, 48 h
  IC50: 3.94 µM
MOLT-4; MOLT-4, time 48 hrs
  TGI: 19 µM
HL-60(TB); HL-60, 48 h
  IC50: 3.77 µM
HL-60(TB); HL-60, time 48 hrs
  TGI: 13.7 µM
HT-29; HT-29, 48 h
  IC50: 7.17 µM
HT-29; HT-29, time 48 hrs
  TGI: 18.2 µM
SR; 48 h
  IC50: 7.7 µM
SR; time 48 hrs
  TGI: > 37 µM
MDA-MB-435; MDA-MB-435, 48 h
  IC50: 5.61 µM
MDA-MB-435; MDA-MB-435, time 48 hrs
  TGI: 12.8 µM
SW-620; SW-620, 48 h
  IC50: 8.02 µM
SW-620; SW-620, time 48 hrs
  TGI: > 37 µM
M14; M14, 48 h
  IC50: 6.71 µM
M14; M14, time 48 hrs
  TGI: 19 µM
MDA-MB-468; MDA-MB-468, 48 h
  IC50: 4.83 µM
MDA-MB-468; MDA-MB-468, time 48 hrs
  TGI: 13 µM
UO-31; UO-31, 48 h
  IC50: 5.1 µM
UO-31; UO-31, time 48 hrs
  TGI: > 37 µM
SK-OV-3; SK-OV-3, 48 h
  IC50: 10.8 µM
SK-OV-3; SK-OV-3, time 48 hrs
  TGI: > 37 µM
SN12C; 48 h
  IC50: 9.83 µM
SN12C; time 48 hrs
  TGI: > 37 µM
SK-MEL-2; SK-MEL-2, 48 h
  IC50: 6.3 µM
SK-MEL-2; SK-MEL-2, time 48 hrs
  TGI: 12.6 µM
COLO 205; COLO 205, 48 h
  IC50: 8.17 µM
COLO 205; COLO 205, time 48 hrs
  TGI: 29.3 µM
CCRF-CEM; 48 h
  IC50: 8.53 µM
CCRF-CEM; time 48 hrs
  TGI: 31.5 µM
[1]
  IC50: > 1 µM
NCI-H23; NCI-H23, 48 h
  IC50: 10.1 µM
NCI-H23; NCI-H23, time 48 hrs
  TGI: > 37 µM
RPMI-8226; RPMI-8226, 48 h
  IC50: 5.96 µM
RPMI-8226; RPMI-8226, time 48 hrs
  TGI: 24.6 µM
PC-3; PC-3, 48 h
  IC50: 6.23 µM
PC-3; PC-3, time 48 hrs
  TGI: > 37 µM
OVCAR-4; OVCAR-4, 48 h
  IC50: 10.5 µM
OVCAR-4; OVCAR-4, time 48 hrs
  TGI: > 37 µM
MCF7; MCF7, 48 h
  IC50: 7.17 µM
MCF7; MCF7, time 48 hrs
  TGI: 18 µM
NCI-H522; NCI-H522, 48 h
  IC50: 5.07 µM
NCI-H522; NCI-H522, time 48 hrs
  TGI: 12 µM
CAKI-1; CAKI-1, 48 h
  IC50: 8.63 µM
CAKI-1; CAKI-1, time 48 hrs
  TGI: > 37 µM
HCT-116; HCT-116, 48 h
  IC50: 5.7 µM
HCT-116; HCT-116, time 48 hrs
  TGI: 17 µM
OVCAR-3; OVCAR-3, 48 h
  IC50: 6.18 µM
OVCAR-3; OVCAR-3, time 48 hrs
  TGI: > 37 µM
SK-MEL-5; SK-MEL-5, 48 h
  IC50: 5.64 µM
SK-MEL-5; SK-MEL-5, time 48 hrs
  TGI: 10.8 µM
Hs-578T; 48 h
  IC50: 6.24 µM
Hs-578T; time 48 hrs
  TGI: 17.9 µM
HCC 2998; HCC 2998, 48 h
  IC50: 7.38 µM
HCC 2998; HCC 2998, time 48 hrs
  TGI: 20 µM
MDA-MB-231; MDA-MB-231, 48 h
  IC50: 7.84 µM
MDA-MB-231; MDA-MB-231, time 48 hrs
  TGI: 23 µM
Malme-3M; 48 h
  IC50: 5.45 µM
Malme-3M; time 48 hrs
  TGI: 10.6 µM
DU-145; DU-145, 48 h
  IC50: 14 µM
DU-145; DU-145, time 48 hrs
  TGI: > 37 µM
OVCAR-8; OVCAR-8, 48 h
  IC50: 10.6 µM
OVCAR-8; OVCAR-8, time 48 hrs
  TGI: > 37 µM
A549; A549, 48 h
  IC50: 9.95 µM
A549; A549, time 48 hrs
  TGI: > 37 µM
HCT-15; HCT-15, 48 h
  IC50: 7.64 µM
HCT-15; HCT-15, time 48 hrs
  TGI: > 37 µM
